Data on two compounds can be found in PMC8213057, “Targeting ALK2: An Open Science Approach to Developing Therapeutics for the Treatment of Diffuse Intrinsic Pontine Glioma” (Journal of Medicinal Chemistry, 2020).

A short description of data set [1]: mouse liver microsomal stability assay. It counts as in vitro ADME. The settings on record: male, CD-1, mouse, microsomes, pH 7.4, mouse liver microsomes, 60 min, 37 °C, read-out: MLM % Remaining at 1h.
The target of another data set is T1, ALK1/ACVRL1 (Homo sapiens, UniProt P37023).
T1 construct: purchased Reaction Biology Corporation
As to the kind of experiment: 375-member kinase panel. It counts as biochemical. The settings on record: Run 1, Run 2; for % enzyme activity: 1 μM.

The target of another data set is CK1a1 (Homo sapiens, UniProt P48729). The settings on record: 1 μM; Run 1, Run 2.
The next data set deals with IRAK1 (Homo sapiens, UniProt P51617). The settings on record: 1 μM; Run 1, Run 2.
The target in another data set is T2, JAK3 (Homo sapiens, UniProt P52333).
T2 sequence (P52333 1-1124): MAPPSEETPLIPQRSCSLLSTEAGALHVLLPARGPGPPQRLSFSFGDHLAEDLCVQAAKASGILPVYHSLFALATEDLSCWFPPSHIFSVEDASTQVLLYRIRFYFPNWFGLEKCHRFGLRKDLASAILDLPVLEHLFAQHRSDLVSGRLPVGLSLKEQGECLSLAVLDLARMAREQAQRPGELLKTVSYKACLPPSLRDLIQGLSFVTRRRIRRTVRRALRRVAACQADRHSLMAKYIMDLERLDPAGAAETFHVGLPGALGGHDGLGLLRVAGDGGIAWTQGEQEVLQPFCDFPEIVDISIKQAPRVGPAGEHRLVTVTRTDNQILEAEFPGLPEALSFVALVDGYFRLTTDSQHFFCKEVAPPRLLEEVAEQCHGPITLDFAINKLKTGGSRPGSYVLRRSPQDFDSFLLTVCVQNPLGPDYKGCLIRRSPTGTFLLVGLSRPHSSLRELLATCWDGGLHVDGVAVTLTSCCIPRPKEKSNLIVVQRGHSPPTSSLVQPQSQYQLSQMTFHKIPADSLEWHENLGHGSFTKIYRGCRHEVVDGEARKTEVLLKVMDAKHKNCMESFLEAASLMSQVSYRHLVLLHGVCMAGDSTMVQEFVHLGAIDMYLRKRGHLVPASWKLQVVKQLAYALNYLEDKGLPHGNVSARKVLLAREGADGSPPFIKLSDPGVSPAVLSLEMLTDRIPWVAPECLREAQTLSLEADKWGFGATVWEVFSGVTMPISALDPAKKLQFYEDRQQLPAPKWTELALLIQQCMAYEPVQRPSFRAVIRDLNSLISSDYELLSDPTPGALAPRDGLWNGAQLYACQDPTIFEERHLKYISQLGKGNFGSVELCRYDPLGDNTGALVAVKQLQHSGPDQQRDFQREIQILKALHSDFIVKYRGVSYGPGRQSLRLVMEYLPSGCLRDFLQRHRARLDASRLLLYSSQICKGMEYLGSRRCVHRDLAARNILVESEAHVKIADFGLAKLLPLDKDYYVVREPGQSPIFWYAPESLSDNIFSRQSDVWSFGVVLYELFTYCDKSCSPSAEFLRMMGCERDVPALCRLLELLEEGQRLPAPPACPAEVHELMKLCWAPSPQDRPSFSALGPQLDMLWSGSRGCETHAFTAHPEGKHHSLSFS
The settings on record: 1 μM; Run 1, Run 2.

The next data set deals with KDR/VEGFR2 (Homo sapiens, UniProt P35968). The settings on record: 1 μM; Run 1, Run 2.
The target of a further data set is PAK4 (Homo sapiens, UniProt O96013). The settings on record: 1 μM; Run 1, Run 2.
For another data set, the target named is c-Src (Homo sapiens, UniProt P12931). Kind of data set: biochemical. The settings on record: read-out: % enzyme activity, 1 μM; Run 1, Run 2.
Another data set concerns the target FGFR2 (Homo sapiens, UniProt P21802). As to the kind of experiment: biochemical. The settings on record: read-out: % enzyme activity, 1 μM; Run 1, Run 2.
The target of a further data set is LYN (Homo sapiens, UniProt P07948). Kind of data set: biochemical. The settings on record: read-out: % enzyme activity, 1 μM; Run 1, Run 2.
The target in the next data set is MELK (Homo sapiens, UniProt Q14680). As to the kind of experiment: biochemical. The settings on record: read-out: % enzyme activity, 1 μM; Run 1, Run 2.
A further data set has as its target MSK1/RPS6KA5 (Homo sapiens, UniProt O75582). As to the kind of experiment: biochemical. The settings on record: read-out: % enzyme activity, 1 μM; Run 1, Run 2.
The target of another data set is T3, MYLK3 (Homo sapiens, UniProt Q32MK0).
T3 sequence (Q32MK0 1-819): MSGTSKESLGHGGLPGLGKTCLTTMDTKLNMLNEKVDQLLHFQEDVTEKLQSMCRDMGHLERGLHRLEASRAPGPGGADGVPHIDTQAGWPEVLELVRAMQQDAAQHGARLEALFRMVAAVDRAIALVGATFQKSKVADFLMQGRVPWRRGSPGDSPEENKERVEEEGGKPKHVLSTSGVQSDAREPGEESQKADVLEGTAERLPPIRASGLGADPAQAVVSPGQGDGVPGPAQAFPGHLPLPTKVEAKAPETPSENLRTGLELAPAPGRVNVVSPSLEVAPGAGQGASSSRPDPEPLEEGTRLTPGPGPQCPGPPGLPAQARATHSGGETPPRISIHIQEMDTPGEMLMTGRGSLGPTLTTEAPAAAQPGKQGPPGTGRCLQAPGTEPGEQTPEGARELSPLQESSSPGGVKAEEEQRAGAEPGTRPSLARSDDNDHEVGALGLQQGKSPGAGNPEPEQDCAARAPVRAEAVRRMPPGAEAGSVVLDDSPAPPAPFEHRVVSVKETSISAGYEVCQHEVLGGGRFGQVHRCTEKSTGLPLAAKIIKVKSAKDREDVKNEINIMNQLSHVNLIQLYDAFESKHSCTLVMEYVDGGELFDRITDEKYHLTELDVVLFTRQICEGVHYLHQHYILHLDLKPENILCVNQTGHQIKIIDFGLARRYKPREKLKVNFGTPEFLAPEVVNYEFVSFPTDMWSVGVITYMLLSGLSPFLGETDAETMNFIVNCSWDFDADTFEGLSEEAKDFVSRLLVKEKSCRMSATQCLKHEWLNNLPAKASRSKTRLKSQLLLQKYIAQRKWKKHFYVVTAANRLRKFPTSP
Kind of data set: biochemical. The settings on record: read-out: % enzyme activity, 1 μM; Run 1, Run 2.

T1 sequence (P37023 22-503): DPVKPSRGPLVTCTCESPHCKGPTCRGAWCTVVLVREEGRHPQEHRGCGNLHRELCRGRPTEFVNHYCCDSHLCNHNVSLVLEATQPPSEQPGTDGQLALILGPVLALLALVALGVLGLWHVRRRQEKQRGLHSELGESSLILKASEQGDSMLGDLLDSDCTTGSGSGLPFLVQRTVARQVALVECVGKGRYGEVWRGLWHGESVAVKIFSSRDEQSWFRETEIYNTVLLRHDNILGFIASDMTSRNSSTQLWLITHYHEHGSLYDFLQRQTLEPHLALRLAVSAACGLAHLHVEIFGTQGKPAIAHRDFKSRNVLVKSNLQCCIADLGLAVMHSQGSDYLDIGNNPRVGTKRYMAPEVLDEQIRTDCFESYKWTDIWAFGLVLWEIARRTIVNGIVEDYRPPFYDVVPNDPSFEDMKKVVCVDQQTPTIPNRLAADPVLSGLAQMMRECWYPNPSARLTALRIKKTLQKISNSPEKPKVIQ
Chain of CK1a1 (P48729 whole entry): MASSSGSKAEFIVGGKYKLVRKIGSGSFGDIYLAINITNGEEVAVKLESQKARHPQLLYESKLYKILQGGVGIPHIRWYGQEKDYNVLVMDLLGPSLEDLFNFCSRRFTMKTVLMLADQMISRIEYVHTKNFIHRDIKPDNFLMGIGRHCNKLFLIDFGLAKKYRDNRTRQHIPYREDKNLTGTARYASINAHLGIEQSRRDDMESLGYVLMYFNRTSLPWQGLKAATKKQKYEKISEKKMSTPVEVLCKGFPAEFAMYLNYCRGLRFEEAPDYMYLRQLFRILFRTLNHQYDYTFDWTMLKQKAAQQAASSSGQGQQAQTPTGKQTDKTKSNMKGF
Chain of LYN (P07948 whole entry): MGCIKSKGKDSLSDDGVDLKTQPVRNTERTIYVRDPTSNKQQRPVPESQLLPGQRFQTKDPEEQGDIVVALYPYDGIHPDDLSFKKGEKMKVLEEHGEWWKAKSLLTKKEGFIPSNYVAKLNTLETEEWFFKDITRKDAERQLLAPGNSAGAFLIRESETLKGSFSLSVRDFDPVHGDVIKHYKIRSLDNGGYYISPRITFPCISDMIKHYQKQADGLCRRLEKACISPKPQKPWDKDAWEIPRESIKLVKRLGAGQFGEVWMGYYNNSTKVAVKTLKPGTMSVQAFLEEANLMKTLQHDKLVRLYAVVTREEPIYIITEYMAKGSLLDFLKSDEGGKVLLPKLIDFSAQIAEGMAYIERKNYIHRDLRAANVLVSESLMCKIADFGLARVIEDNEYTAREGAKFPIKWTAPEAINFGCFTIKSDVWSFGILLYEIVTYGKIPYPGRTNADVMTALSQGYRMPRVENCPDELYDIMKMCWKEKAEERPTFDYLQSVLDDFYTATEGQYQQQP
Chain of c-Src (P12931 whole entry): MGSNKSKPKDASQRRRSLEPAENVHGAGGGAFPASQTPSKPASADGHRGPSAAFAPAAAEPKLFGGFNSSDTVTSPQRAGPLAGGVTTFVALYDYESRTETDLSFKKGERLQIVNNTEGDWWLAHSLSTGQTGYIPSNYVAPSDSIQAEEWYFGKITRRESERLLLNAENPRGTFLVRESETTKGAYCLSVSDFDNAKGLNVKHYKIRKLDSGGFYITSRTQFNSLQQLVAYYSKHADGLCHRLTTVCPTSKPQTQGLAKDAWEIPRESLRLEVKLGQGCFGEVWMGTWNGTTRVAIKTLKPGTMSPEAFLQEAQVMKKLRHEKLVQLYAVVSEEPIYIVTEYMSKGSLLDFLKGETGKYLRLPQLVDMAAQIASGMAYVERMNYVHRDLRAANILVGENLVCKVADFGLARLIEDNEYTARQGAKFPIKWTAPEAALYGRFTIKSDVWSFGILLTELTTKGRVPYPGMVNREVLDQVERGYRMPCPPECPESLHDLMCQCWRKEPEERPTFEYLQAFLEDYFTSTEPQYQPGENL
Chain of KDR/VEGFR2 (P35968 20-1356): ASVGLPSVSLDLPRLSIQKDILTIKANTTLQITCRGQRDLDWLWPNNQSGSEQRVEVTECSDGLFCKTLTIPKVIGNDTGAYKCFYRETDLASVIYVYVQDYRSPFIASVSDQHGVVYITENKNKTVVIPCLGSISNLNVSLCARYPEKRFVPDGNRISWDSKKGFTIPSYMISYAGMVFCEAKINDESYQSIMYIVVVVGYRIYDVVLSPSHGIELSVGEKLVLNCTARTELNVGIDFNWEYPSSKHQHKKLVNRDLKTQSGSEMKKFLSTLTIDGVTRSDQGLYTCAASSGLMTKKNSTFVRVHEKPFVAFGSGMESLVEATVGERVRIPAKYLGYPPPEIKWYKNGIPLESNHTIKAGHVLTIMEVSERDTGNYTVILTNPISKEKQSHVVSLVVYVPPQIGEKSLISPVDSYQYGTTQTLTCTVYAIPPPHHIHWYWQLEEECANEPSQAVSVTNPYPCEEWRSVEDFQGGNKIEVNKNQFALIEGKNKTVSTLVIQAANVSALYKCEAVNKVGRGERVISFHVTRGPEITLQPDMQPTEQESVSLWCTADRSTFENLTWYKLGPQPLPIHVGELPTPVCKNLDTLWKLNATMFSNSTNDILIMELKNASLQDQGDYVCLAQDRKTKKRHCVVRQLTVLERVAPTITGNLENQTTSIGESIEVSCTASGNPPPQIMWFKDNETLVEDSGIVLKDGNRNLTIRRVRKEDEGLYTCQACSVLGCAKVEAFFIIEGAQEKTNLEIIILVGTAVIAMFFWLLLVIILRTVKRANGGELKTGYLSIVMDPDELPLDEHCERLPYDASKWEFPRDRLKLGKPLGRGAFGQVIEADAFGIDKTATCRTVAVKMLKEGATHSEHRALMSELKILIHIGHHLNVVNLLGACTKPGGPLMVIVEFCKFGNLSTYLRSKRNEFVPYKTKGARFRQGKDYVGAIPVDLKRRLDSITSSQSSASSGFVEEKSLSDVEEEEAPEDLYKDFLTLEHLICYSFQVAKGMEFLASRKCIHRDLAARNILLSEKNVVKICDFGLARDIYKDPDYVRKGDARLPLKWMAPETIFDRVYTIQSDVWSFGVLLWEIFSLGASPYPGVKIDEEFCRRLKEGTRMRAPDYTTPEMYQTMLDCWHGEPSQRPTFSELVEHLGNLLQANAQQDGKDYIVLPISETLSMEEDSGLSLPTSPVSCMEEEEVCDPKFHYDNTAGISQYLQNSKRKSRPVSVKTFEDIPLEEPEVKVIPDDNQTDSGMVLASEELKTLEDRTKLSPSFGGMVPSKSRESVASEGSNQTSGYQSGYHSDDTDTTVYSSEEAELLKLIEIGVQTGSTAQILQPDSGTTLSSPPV
Chain of PAK4 (O96013 whole entry): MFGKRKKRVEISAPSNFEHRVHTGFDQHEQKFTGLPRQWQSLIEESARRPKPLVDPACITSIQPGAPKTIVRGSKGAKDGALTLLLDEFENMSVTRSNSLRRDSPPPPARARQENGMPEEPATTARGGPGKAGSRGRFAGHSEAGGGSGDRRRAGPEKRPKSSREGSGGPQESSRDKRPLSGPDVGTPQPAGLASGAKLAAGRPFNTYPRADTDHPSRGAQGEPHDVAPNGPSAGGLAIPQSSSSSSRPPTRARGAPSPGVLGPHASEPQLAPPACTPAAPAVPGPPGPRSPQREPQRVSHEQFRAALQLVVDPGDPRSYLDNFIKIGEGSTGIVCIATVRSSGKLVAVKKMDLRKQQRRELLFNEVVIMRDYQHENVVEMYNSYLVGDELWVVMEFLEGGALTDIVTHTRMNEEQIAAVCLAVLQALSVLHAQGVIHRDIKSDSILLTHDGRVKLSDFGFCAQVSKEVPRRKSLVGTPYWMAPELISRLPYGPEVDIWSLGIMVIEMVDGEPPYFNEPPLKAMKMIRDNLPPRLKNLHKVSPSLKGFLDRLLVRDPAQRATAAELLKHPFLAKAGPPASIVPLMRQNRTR
Chain of MSK1/RPS6KA5 (O75582 whole entry): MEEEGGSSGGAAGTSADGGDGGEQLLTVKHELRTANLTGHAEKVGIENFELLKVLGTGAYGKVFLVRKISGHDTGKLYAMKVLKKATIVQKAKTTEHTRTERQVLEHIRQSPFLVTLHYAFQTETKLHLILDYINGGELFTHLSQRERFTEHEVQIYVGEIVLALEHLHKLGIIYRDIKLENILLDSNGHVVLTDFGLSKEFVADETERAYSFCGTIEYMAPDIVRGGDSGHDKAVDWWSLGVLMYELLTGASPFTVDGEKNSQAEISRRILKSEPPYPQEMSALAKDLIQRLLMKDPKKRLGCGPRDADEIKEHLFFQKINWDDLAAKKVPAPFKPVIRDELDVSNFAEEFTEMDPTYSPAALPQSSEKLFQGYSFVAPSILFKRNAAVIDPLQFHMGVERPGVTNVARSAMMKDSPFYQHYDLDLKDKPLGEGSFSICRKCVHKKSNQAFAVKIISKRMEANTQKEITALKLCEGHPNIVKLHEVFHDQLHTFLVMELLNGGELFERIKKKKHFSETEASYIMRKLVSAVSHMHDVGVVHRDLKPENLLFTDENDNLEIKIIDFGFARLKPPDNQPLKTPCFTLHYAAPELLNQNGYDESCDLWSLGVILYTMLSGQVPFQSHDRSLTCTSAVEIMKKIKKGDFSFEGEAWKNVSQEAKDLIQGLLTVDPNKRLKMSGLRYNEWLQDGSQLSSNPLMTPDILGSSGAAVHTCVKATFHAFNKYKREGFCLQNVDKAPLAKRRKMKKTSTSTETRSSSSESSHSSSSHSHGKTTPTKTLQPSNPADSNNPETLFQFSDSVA

A word on the fraction remaining: it is the share of the starting amount still present when the sample was taken. For the compound `COc1cc(-c2cncc(-c3ccc(N4C[C@@H](C)N(C)[C@@H](C)C4)cc3)c2C)cc(F)c1C(N)=O` [Compound 26c, 2-Fluoro-6-methoxy-4-(4-methyl-5-(4-((3R,5S)-3,4,5-trimethylpiperazin-1-yl)phenyl)pyridin-3-yl)benzamide], in data set [1], the share remaining at 1 h, 1 μM came out at 48.7%. Further, the “% enzyme activity” value was found to be 4.38% on ALK1/ACVRL1; 99.44% at CK1a1; 97.90% on IRAK1; 99.31% on JAK3; 85.59% on KDR/VEGFR2; 98.82% at PAK4. Also, the remaining activity at 1 µM at ALK1/ACVRL1 (read-out: % enzyme activity, 1 μM) amounted to 4.67%; on c-Src, 100%; on FGFR2, 91.9%; on LYN, 91%; on MELK, 99.4%; at MSK1/RPS6KA5, 90.5%. Further, on MYLK3, the remaining activity at 1 µM is 100%.
`COc1cc(-c2cncc(-c3ccc(N4CCN(C)CC4)cc3)c2C)cc(F)c1C(N)=O` [Compound 26a, 2-Fluoro-6-methoxy-4-(4-methyl-5-(4-(4-methylpiperazin-1-yl)phenyl)pyridin-3-yl)benzamide]: the fraction remaining at 1 h, 1 μM in data set [1] turned out to be 54.6%. In addition, the “% enzyme activity” value at ALK1/ACVRL1 is on record as 2.65%; on CK1a1 it was 91.31%; at IRAK1, 101.36%; at JAK3, 102.92%; at KDR/VEGFR2, 92.99%; on PAK4, 98.21%. Moreover, the remaining activity at 1 µM on c-Src was found to be 96.6%; on FGFR2, 95.5%; at LYN, 79.9%; on MELK, 99.2%; on MSK1/RPS6KA5, 87.1%; at MYLK3, 99.8%.
